This is an account of results in patent publication US20200024278A1, “COMPOSITION COMPRISING ANTIBIOTIC COMPOUND AND AN HETEROCYCLIC COMPOUND AND THEIR USE IN PREVENTING OR TREATING BACTERIAL INFECTIONS” (MUTABILIS, priority 2016, published 2020).

The test system of the experiment is PAE 27853. Type of experiment: cell-based, P. aeruginosa. As to conditions: tntbc: Too numerous to be counted. Here is the method: Method 4: Determination of the Spontaneous Mutation Frequency of the Compounds Alone and Combined with Antibiotics.
Bacterial isolates (Table 3) were grown overnight at 35° C. on TSA plates (Becton-Dickinson and Company) in ambient air. After 24 h of incubation, isolated bacterial colonies were added to cation-adjusted Mueller-Hinton broth (ca-MHB; Becton-Dickinson and Company) and cultured for approximately 6 h at 35° C. The pre-culture was stopped once bacteria have reached an OD600 nm of 0.5 for 200 μL. The bacterial suspension was centrifuged at 4000 rpm for 20 min. The supernatant was then discarded and the bacterial pellet was dissolved in ca-MHB to obtain 10^9 to 10^10 CFU/mL. Assays including Fosfomycin were supplemented with 25 μg/ml of Glucose-6-phosphate. 100 μL of the adjusted bacterial suspension were spread on agar plates containing different concentrations of the compounds of the present invention alone or combined with an antibacterial (Table 1). The plates were incubated for 24-48 h at 35° C. in ambient air. CFU were numerated on each agar plate containing compound. The number of resistant colonies obtained was divided by the starting inoculum to give the frequency of spontaneous resistance for a given incubation time (24 and 48 h).

Read-outs that look alike come from different tables or passages of the source.

For `O=C(O)c1cn(C2CC2)c2cc(N3CCNCC3)c(F)cc2c1=O` [CIP, Ciprofloxacin], the “Frequency of spontaneous resistance” value runs as follows: (single agent at 4.MIC) 5.1E−08; (single agent at 8.MIC) 4.0E−09.
